What was measured:
[1] = tested on: dogs, 24 hours after a 2-step coronary ligature; assay: 2-step coronary ligature in dogs (Harris model); type: in vivo, dog
Text: It is also emphasized that, in comparative investigations of the 2-step coronary ligature in dogs (Harris model), the new compounds of formula I have an advantageously sustained duration of action (see Table 1).

in vivo = settings: rat, iv, male or female Wistar rats, i.v. tail vein, Probit regression, confidence interval p=0.05 in parentheses, read-out: LD50 i.v. (acute tox., rat)
Text: LD50 i.v. =lethal dose in mg/kg for 50% of the experimental animals of an orientating acute toxicity test on male or female Wistar rats of our own breed, i.v. administration in the tail vein, 3-4 dosages, 10 animals per group. Data analyzed by the Probit regression analysis with a confidence interval of p=0.05 (values given in parentheses).

[2] = tested on: aconitine arrhythmia in female Wistar rats; type: in vivo, rat (female Wistar); settings: for ED73 i.v. (aconitine, rat): dose which inhibits aconitine arrhythmia up to the occurrence of isolated ventricular extrasystoles: female Wistar rats, Probit regression, confidence interval p=0.05 in parentheses; for Q = LD50 i.v./ED73 i.v. (therapeutic breadth): rat, ratio of LD50 to ED73 (aconitine model)
Protocol: ED73 i.v. =the dose in mg/kg, which inhibits aconitine arrhythmia in female Wistar rats after i.v. administration of the test substance up to the occurrence of isolated ventricular extrasystolea (K. Femmer et al., Pharmazie 31, page 36 (1976). The data is analyzed by the Probit regression analysis with a confidence interval of p=0.05 (values given in parentheses).

Solubility = type: physicochemical

| Compound | duration of action (dog, Harris) ([1]; at eff. dose 2.0 mg/kg i.v.) | LD50 (in vivo) | ED73 i.v. (aconitine, rat): dose which inhibits aconitine arrhythmia up to the occurrence of isolated ventricular extrasystoles [2] | Q = LD50 i.v./ED73 i.v. (therapeutic breadth) [2] | duration of action (dog, Harris) ([1]; at eff. dose 6.0 mg/kg i.v.) | solubility of the base in dilute acids (in words) (Solubility) | duration of action (dog, Harris) ([1]; at eff. dose 1.0 mg/kg i.v.) |
| --- | --- | --- | --- | --- | --- | --- | --- |
| CCOC(=O)Nc1ccc2c(c1)N(C(=O)CN(C)C)c1ccccc1CC2 [Bonnecor ®, 3-carbethoxyamino-5-dimethylaminoacetyl-10,11-dihydro-5H-dibenz[b,f]azepine, reference compound] | 15 min | 11 mg/kg | 0.28 mg/kg | 39 |  |  |  |
| CCN(CC)CC(=O)Nc1c(C)cccc1C [Lidocaine, lidocaine, reference compound] |  |  |  |  | 10 min |  |  |
| Cc1cccc(C)c1OCC(C)N (stereo not shown) [Mexiletin, mexiletin, reference compound] |  | 41 mg/kg | 15 mg/kg |  |  |  |  |
| CCOC(=O)Nc1ccc2c(c1)N(C(=O)CCN1CCOCC1)c1ccccc1S2 [Morazicine, morazicine, reference compound] | 15 min | 11 mg/kg | 1.1 mg/kg | 10 |  |  |  |
| CCOC(=O)Nc1ccc2c(c1)N(C(=O)CNCc1ccccc1)c1ccccc1CC2 [No. 1, 3-carbethoxyamino-b 5-benzylaminoacetyl-10,11-dihydro-5H-dibenz[b,f]azepine] |  | 13 mg/kg | 0.79 (0.53-1.2) mg/kg | 16 |  | not very soluble in dilute acids |  |
| CCOC(=O)Nc1ccc2c(c1)N(C(=O)CNCCO)c1ccccc1CC2 [No. 2, 3-carbethoxyamino-5-(beta-oxyethylamino)acetyl-10,11-dihydro-5H-dibenz[b,f]azepine] | 60 min | 12 mg/kg | 0.19 mg/kg | 63 |  |  |  |
| CCNCC(=O)N1c2ccccc2CCc2ccc(NC(=O)OCC)cc21 [No. 3] | 180 min | 9.6 mg/kg | 0.09 mg/kg | 107 |  |  | 60 min |
| CCOC(=O)Nc1ccc2c(c1)N(C(=O)CNC(C)C)c1ccccc1CC2 [No. 4, 3-carbethoxyamino-5-isopropylamino-acetyl-10,11-dihydro-5H-dibenz[b,f]azepine] |  | 8.2 mg/kg | 0.71 mg/kg | 12 |  |  |  |
| CCCNCC(=O)N1c2ccccc2CCc2ccc(NC(=O)OCC)cc21 [No. 5, 3-carbethoxyamino-5-n-propylamino-acetyl-10,11-dihydro-5H-dibenz[b,f]azepine] |  | 6.1 mg/kg | 0.18 mg/kg | 34 |  |  |  |
| CCOC(=O)Nc1ccc2c(c1)N(C(=O)CNC(C)(C)C)c1ccccc1CC2 [No. 6, 3-carbethoxyamino-5-tertiary-butylamino-acetyl-10,11-dihydro-5H-dibenz[b,f]azepine] |  | 5.6 mg/kg | 0.35 mg/kg | 16 |  |  |  |
| CCCCNCC(=O)N1c2ccccc2CCc2ccc(NC(=O)OCC)cc21 [No. 7, 3-carbethoxyamino-5-n-butylamino-acetyl-10,11-dihydro-5H-dibenz[b,f]azepin] |  | 5 mg/kg | 0.29 mg/kg | 17 |  |  |  |
| CCOC(=O)Nc1ccc2c(c1)N(C(=O)CNC1CCCCC1)c1ccccc1CC2 [No. 8, 3-carbethoxyamino-5-cyclohexylamino-acetyl-10,11-dihydro-5H-dibenz[b,f]azepine] |  | 3.7 mg/kg | 0.25 mg/kg | 15 |  |  |  |
| CCCCCCNCC(=O)N1c2ccccc2CCc2ccc(NC(=O)OCC)cc21 [No. 9] |  | 14 mg/kg | 0.90 mg/kg | 16 |  |  |  |
| CCOC(=O)Nc1ccc2c(c1)N(C(=O)CN)c1ccccc1CC2 [No. 10, 3-carbethoxyamino-5-amino-acetyl-10,11-dihydro-5H-dibenz[b,f]azepine] |  | 14 mg/kg | 0.20 mg/kg | 70 |  |  |  |
| CNCC(=O)N1c2ccccc2CCc2ccc(NC(=O)OC(C)C)cc21 [No. 11] |  | 15 mg/kg | 0.61 mg/kg | 25 |  |  |  |
| CC(C)OC(=O)Nc1ccc2c(c1)N(C(=O)CNCCO)c1ccccc1CC2 [No. 12] |  | 20 mg/kg | 0.51 mg/kg | 39 |  |  |  |
| CCNCC(=O)N1c2ccccc2CCc2ccc(NC(=O)OC(C)C)cc21 [No. 13, 3-carbisopropoxyamino-5-ethylamino-acetyl-10,11-dihydro-5H-dibenz[b,f]azepine] |  | 16 mg/kg | 0.47 mg/kg | 34 |  |  |  |
| CC(C)OC(=O)Nc1ccc2c(c1)N(C(=O)CNC(C)(C)C)c1ccccc1CC2 [No. 14] |  |  | 0.18 mg/kg |  |  |  |  |
| CNCC(=O)N1c2ccccc2CCc2ccc(NC(=O)OC)cc21 [No. 15] | 15 min | 20 mg/kg | 0.30 mg/kg | 67 |  |  |  |
| COC(=O)Nc1ccc2c(c1)N(C(=O)CNCCO)c1ccccc1CC2 [No. 16] |  | 36 mg/kg | 0.40 mg/kg | 90 |  |  |  |
| CCNCC(=O)N1c2ccccc2CCc2ccc(NC(=O)OC)cc21 [No. 17] | 15 min | 19 mg/kg | 0.95 mg/kg | 20 |  |  |  |
| CCOC(=O)Nc1ccc2c(c1)N(C(=O)CCNCCO)c1ccccc1CC2 [No. 18] | 60 min | 20 mg/kg | 0.85 mg/kg | 24 |  |  |  |
| CCOC(=O)Nc1ccc2c(c1)N(C(=O)CNC)c1ccccc1C=C2 [No. 19] |  | 11 mg/kg | 0.32 mg/kg | 34 |  |  |  |
| CCNCC(=O)N1c2ccccc2C=Cc2ccc(NC(=O)OCC)cc21 [No. 20, 3-carbethoxyamino-5-ethylamino-acetyl-acetyl-5H-dibenz[b,f]azepine] |  | 6.2 mg/kg | 0.40 mg/kg | 15 |  |  |  |
| CCNCCC(=O)N1c2ccccc2CCc2ccc(NC(=O)OCC)cc21 [No. 21, 3-carbethoxyamino-5-(β-ethylaminopropionyl)-10,11-dihydro-5H-dibenz[b,f]azepine] |  | 12 mg/kg | 0.42 mg/kg | 29 |  |  |  |
| CCOC(=O)Nc1ccc2c(c1)N(C(=O)CNC(C)c1ccccc1)c1ccccc1CC2 (stereo not drawn) [No. 22, 3-carbethoxyamino-5-(α-phenylethylamino)-acetyl-10,11-dihydro-5H-dibenz[b,f]azepine] |  | 31 mg/kg | 3.5 mg/kg | 9 |  |  |  |

Source: patent US5116974A, “3-carbalkoxyamino-5-aminoacyl-5H-dibenz[b,f]azepines, and methods for making” (Arzneimittelwerk Dresden GmbH, priority 1989, dated 1992)
